# Assay results as given in patent publication US12502403B2, “Tafoxiparin for the treatment of preeclampsia” (DILAFOR AB, priority 2020, dated 2025).
# Legend:
# subcutaneous arteries [1] = test: Myograph: endothelin 1 (ET-1)-induced contraction of subcutaneous artery segments after pre-treatment and placental vesicles; format: cell-based, human; details: for contraction to ET-1 / AUC / AUC/AUC (PE) % / % contractile change: Example 5, 10 μg/ml pre-incubation then PE vesicles; for AUC / AUC/AUC (PE) % / % contractile change: ET-1, pooled from five patients; for % contractile change: vs PE; for reduction of contraction induced with ET-1: vs PE vesicles only; for Emax [%] ET-1: relative to 60 mM potassium contraction; for logEC50 ET-1: EC50 of agonist ET-1; for effect on ET-1 mediated contraction with control P vesicles: vs vesicles only
# Excerpt: (§1) In a myograph model, arteries from subcutaneous tissue of women undergoing Caesarian section were used. The contractile effect of arteries comprising vesicles derived from placentas from pre-eclamptic women was compared with the contractile effect of arteries comprising vesicles derived from placentas from non-preeclamptic women. […] The Low Molecular Weight Heparin (LMWH) tinzaparin (Innohep®, Leo Pharma Denmark) was used as a comparator.
# (§2) Subcutaneous arteries were removed from the subcutaneous fat of the abdomen during Caesarean section and immediately put in cold DMEM-medium. Arteries were dissected in cold Na-Krebs buffer at a pH of 7.3-7.4 and cut into ring segments with a length of 1-2 mm as previously shown. The sections were mounted on two 40 μm-diameter wires and connected to a device sensitive to vascular tension. The stretching force property of the arteries were recorded with Mulvany-Halpern myographs. The mounted arterial segments were immersed into temperature-controlled (+37° C.) tissue baths containing bicarbonate-based buffer solution gassed with carbogen to obtain a pH of 7.3-7.4. Each segment was stretched to 90% of the normal internal circumference, which is the size each segment would have in a transmural pressure of 100 mm Hg. The contractile capacity of each artery segment was checked by exposure to 60 mM KCl buffer solution twice or three times to study viability. After each the bath was washed and the tone returned to baseline. When stable, different molecules or receptor agonists are added to the baths in concentration-dependent manner to observe the vasomotor responses of the vessels.
# (§3) The artery segments were studied by exposure to angiotensin II or endothelin 1 in cumulative concentrations of the agonists. […] In some experiments, 30 minutes after adding vesicles to the tissue baths concentration-contraction curves were obtained by cumulative application of angiotensin II (angiotensin 1 and 2 receptor agonist, concentration range 10^−12 to 10^−6 M). After washing and the tension returning to base line, agonists are added. After washing and the tension returning to base line endothelin 1 was added (endothelin A and B receptor agonist, concentration range 10^−11 to 10^−7 M).
# (§4) After 30 minutes, non-preeclampsia vesicles as control (P) or pre-eclampsia (PE) vesicles were added at a concentration of 200 μg (protein concentration 40 μg/mL).
# (§5) 30 minutes after adding vesicles to the tissue baths, concentration-contraction curves were obtained by cumulative application of angiotensin II (A9525 Sigma-Aldrich Angiotensin II human, powder CAS Number 4474-91-3 dissolved in sodium chloride to a concentration of 10^−3 M) and used in the concentration range 10^−12 to 10^−6 M. After wash-out and the tension had returned to base line, ET-1 (ALX-155-001, Enzo Life Sciences) was added and recorded (endothelin A and B receptor agonist, concentration range 10^−11 to 10^−7 M).
# subcutaneous arteries [2] = test: Myograph: angiotensin II-induced contraction of subcutaneous artery segments after pre-treatment and placental vesicles; details: for contractile effect of AngII in the presence of PE: 10 μg/ml pre-incubation; for AUC / AUC/AUC (PE) % / % contractile change: AngII; for % contractile change: vs PE; for Emax [%] AngII: relative to 60 mM potassium contraction; for logEC50 AngII: EC50 of agonist AngII; for effect on Ang II mediated contraction with control P vesicles: vs vesicles only;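 for all read-outs here: wire myograph tension of human abdominal subcutaneous artery rings from Caesarean deliveries at 37 °C, 30 min pre-treatment, vesicles 30 min, then cumulative angiotensin II 10^−12 to 10^−6 M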
# Excerpt: as §1, §2, §3, §4, §5
# subcutaneous arteries [3] = test: Myograph: endothelial function (relaxation to substance P after potassium pre-contraction); format: cell-based, human
# Protocol: In some experiments the endothelial function was tested by pre-contraction the vessels with 30 mM potassium buffer, giving a stable tone and endothelium function evaluated by exposure to substance P (10^−6 or 10^−5 M).
# [4] = patient 14, 10 μg/ml before PE-vesicles
# [5] = patient 14, 10 μg/ml pre-treatment then PE vesicles
# [6] = patient 14, drug only, no vesicles
# [7] = patient 14, pre-treatment then P vesicles
# [8] = patient 14, pre-treatment then PE vesicles
# [9] = patient 14, control (P) vesicles
# [10] = Example 3, 10 μg/ml pre-incubation then PE vesicles, pooled from four patients
# [11] = Example 4, 100 μg/ml pre-incubation then PE vesicles
# [12] = Example 4, 100 μg/ml pre-incubation then PE vesicles, pooled from five patients
# [13] = patient 14, 10 μg/ml before PE-vesicles, vs PE vesicles only
# [14] = patient 13, 10 μg/ml pre-treatment then PE vesicles
# [15] = patient 13, drug only, no vesicles
# [16] = patient 13, pre-treatment then P vesicles
# [17] = patient 13, control (P) vesicles
substance,measurement,setting,value
tafoxiparin,contraction to ET-1,subcutaneous arteries [1],significantly lower contraction
same,AUC,subcutaneous arteries [1],193.1
same,AUC/AUC (PE) %,subcutaneous arteries [1],61.8%
same,% contractile change,subcutaneous arteries [1],−38%
same,reduction of contraction induced with ET-1,subcutaneous arteries [1]; [4],56%
same,Emax [%] ET-1,subcutaneous arteries [1]; [5],77%
same,logEC50 ET-1,subcutaneous arteries [1]; [6],9.9
same,logEC50 ET-1,subcutaneous arteries [1]; [7],7.7
same,logEC50 ET-1,subcutaneous arteries [1]; [8],6.9
same,effect on ET-1 mediated contraction with control P vesicles,subcutaneous arteries [1]; [9],little or no effect
same,Emax [%] ET-1,subcutaneous arteries [1]; [6],180%
same,Emax [%] ET-1,subcutaneous arteries [1]; [7],105%
same,contractile effect of AngII in the presence of PE,subcutaneous arteries [2]; Example 3,affect the contractile effect of AngII
same,AUC,subcutaneous arteries [2]; [10],160.5
same,AUC/AUC (PE) %,subcutaneous arteries [2]; [10],68.5%
same,% contractile change,subcutaneous arteries [2]; [10],−31.5%
same,AngII induced contraction,subcutaneous arteries [2]; [11],significantly decreased
same,AUC,subcutaneous arteries [2]; [12],306.5
same,AUC/AUC (PE) %,subcutaneous arteries [2]; [12],70.8%
same,% contractile change,subcutaneous arteries [2]; [12],−29%
same,reduction of contraction induced with angiotensin II,subcutaneous arteries [2]; [13],79%
same,Emax [%] AngII,subcutaneous arteries [2]; [5],27%
same,logEC50 AngII,subcutaneous arteries [2]; [6],10.2
same,logEC50 AngII,subcutaneous arteries [2]; [7],9.8
same,logEC50 AngII,subcutaneous arteries [2]; [8],9.4
same,effect on Ang II mediated contraction with control P vesicles,subcutaneous arteries [2]; [9],little or no effect
same,Emax [%] AngII,subcutaneous arteries [2]; [6],101%
same,Emax [%] AngII,subcutaneous arteries [2]; [7],73%
same,Endothelial function [%],subcutaneous arteries [3]; [6],85%
same,Endothelial function [%],subcutaneous arteries [3]; [7],22%
same,Endothelial function [%],subcutaneous arteries [3]; [8],67%
tinzaparin,contraction to ET-1,subcutaneous arteries [1],significantly lower contraction
same,AUC,subcutaneous arteries [1],259.5
same,AUC/AUC (PE) %,subcutaneous arteries [1],83.1%
same,% contractile change,subcutaneous arteries [1],−17%
same,contraction induced with ET-1 (the Emax) compared with PE vesicles only,"subcutaneous arteries [1]; patient 13, 10 μg/ml before PE-vesicles",the same
same,reduction of log EC50 (ET-1),"subcutaneous arteries [1]; patient 13, 10 μg/ml before PE-vesicles, extrapolated",35%
same,Emax [%] ET-1,subcutaneous arteries [1]; [14],143%
same,logEC50 ET-1,subcutaneous arteries [1]; [15],8.5
same,logEC50 ET-1,subcutaneous arteries [1]; [16],8.8
same,logEC50 ET-1,"subcutaneous arteries [1]; patient 13, pre-treatment then PE vesicles (extrapolated)",5.7
same,effect on contraction in the presence of control vesicles (ET-1),subcutaneous arteries [1]; [17],did not appear to have any reducing effect
same,Emax [%] ET-1,subcutaneous arteries [1]; [15],144%
same,Emax [%] ET-1,subcutaneous arteries [1]; [16],166%
same,reduction of contraction induced with ET-1,subcutaneous arteries [1]; [4],15%
same,Emax [%] ET-1,subcutaneous arteries [1]; [5],147%
same,logEC50 ET-1,subcutaneous arteries [1]; [7],9.4
same,logEC50 ET-1,subcutaneous arteries [1]; [8],9.9
same,effect on ET-1 mediated contraction with control P vesicles,subcutaneous arteries [1]; [9],increased contraction
same,Emax [%] ET-1,subcutaneous arteries [1]; [7],197%
same,contractile effect of AngII in the presence of PE,subcutaneous arteries [2]; Example 3,affect the contractile response of AngII
same,AUC,subcutaneous arteries [2]; [10],170.5
same,AUC/AUC (PE) %,subcutaneous arteries [2]; [10],72.7%
same,% contractile change,subcutaneous arteries [2]; [10],−27.3%
same,AngII induced contraction,subcutaneous arteries [2]; [11],significantly decreased
same,AUC,subcutaneous arteries [2]; [12],299.6
same,AUC/AUC (PE) %,subcutaneous arteries [2]; [12],69.3%
same,% contractile change,subcutaneous arteries [2]; [12],−31%
same,reduction of maximum contraction induced by angiotensin II,"subcutaneous arteries [2]; patient 13, 10 μg/ml before PE-vesicles, vs PE vesicles only",23%
same,Emax [%] AngII,subcutaneous arteries [2]; [14],75%
same,logEC50 AngII,subcutaneous arteries [2]; [16],10.8
same,effect on contraction in the presence of control vesicles (AngII),subcutaneous arteries [2]; [17],did not appear to have any reducing effect
same,Emax [%] AngII,subcutaneous arteries [2]; [15],69%
same,Emax [%] AngII,"subcutaneous arteries [2]; patient 13, pre-treatment then P (non-PE) vesicles",103%
same,reduction of contraction induced with angiotensin II,subcutaneous arteries [2]; [13],14%
same,Emax [%] AngII,subcutaneous arteries [2]; [5],109%
same,logEC50 AngII,subcutaneous arteries [2]; [7],10.0
same,logEC50 AngII,subcutaneous arteries [2]; [8],10.0
same,effect on Ang II mediated contraction with control P vesicles,subcutaneous arteries [2]; [9],increased contraction
same,Emax [%] AngII,subcutaneous arteries [2]; [7],135%
same,Endothelial function [%],subcutaneous arteries [3]; [15],96%
same,Endothelial function [%],"subcutaneous arteries [3]; patient 13, pre-treatment then PE vesicles",119.95%
same,Endothelial function [%],"subcutaneous arteries [3]; patient 13, pre-treatment then non-preeclampsia (P) vesicles",69.11%
same,Endothelial function [%],subcutaneous arteries [3]; [7],22%
same,Endothelial function [%],subcutaneous arteries [3]; [8],1%
